Data from patent publication US9422240B2, “Partially saturated nitrogen-containing heterocyclic compound” (TAISHO PHARMACEUTICAL CO., LTD, priority 2012, dated 2016).
pIC50: −log10 of the molar value.

What was measured:
[1] = biological target: T1, human PHD2 (Homo sapiens (Human), UniProt Q9GZT9); test: Test 1: human PHD2 inhibitory activity, [14C]-2-oxoglutarate to [14C]-succinic acid radiometric assay with HIF-1α peptide; assay type: biochemical; settings: test compound's concentration 1 μM; Test 1, [14C]-2-oxoglutarate radiometric assay; read-out: Percent inhibition (% at 1 μM)
How it was run: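 Activity was measured by radiometric counting of [14C]-succinic acid formed during prolyl hydroxylation of a 19-mer HIF-1α peptide, after DNPH removal of residual [14C]-2-oxoglutarate. Baculovirus-expressed human PHD2 lysate (4 μg/well) reacted for 15 min at 37° C. Substrate-free and compound-free wells served as reference points for inhibition.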

[2] = biological target: T1, human PHD2; test: Test 2: human PHD2 inhibitory activity, fluorescence polarization assay of HIF-1α peptide proline hydroxylation; assay type: biochemical; settings: for inhibition at 1 µM: test compound's concentration 1 μM, Test 2, fluorescence polarization assay, read-out: Percent inhibition (% at 1 μM); for pIC50: human PHD2, fluorescence polarization assay, 20-min incubation at 30° C.
How it was run: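 A 19-mer HIF-1α peptide served as substrate, with the reaction started by 40 ng/well human PHD2 (cell lysate of NM_022051-transfected cells) and run 20 min at 30° C. before EDTA stop. Hydroxylated product bound anti-HIF-OH antibody, read by fluorescence polarization versus no-compound control.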

T1 sequence (Q9GZT9 whole entry): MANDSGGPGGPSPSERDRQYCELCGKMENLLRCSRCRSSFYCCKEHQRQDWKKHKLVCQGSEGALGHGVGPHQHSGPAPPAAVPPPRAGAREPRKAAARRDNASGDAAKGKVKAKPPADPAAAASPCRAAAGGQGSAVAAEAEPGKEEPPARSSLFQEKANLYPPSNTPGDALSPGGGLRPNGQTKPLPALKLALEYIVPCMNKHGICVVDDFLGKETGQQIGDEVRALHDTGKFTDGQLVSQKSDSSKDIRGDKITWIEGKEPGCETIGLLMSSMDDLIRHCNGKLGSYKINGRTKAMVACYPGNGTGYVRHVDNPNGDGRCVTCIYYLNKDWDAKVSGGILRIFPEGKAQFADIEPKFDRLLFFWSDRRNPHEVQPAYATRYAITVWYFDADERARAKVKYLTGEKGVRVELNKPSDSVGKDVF

SMILES | inhibition at 1 µM [1] [%] | inhibition at 1 µM [2] [%] | pIC50 [2]
O=C(O)CNC(=O)C1=C(O)C2(CC2)CN(Cc2ccc(Br)cc2)C1=O [Ex. 1-207] | 92 | 93 | 
CC1CC(O)=C(C(=O)NCC(=O)O)C(=O)N1C1(c2ccc(C(F)(F)F)cc2)CC1 (stereo not shown) [Ex. 1-210] | 59 | 42 | 
CC1(C)CC(O)=C(C(=O)NCC(=O)O)C(=O)N1Cc1ccc(C2CCC2)cc1 [Ex. 1-211] | 76 | 79 | 
CC1(C)CC(O)=C(C(=O)NCC(=O)O)C(=O)N1Cc1cc(-c2ccc(Cl)cc2)no1 [Ex. 1-213] | 88 | 88 | 
O=C(O)CNC(=O)C1=C(O)C2(CC2)CN(Cc2ccc(C3CC3)cc2)C1=O [Ex. 1-214] | 89 | 90 | 
O=C(O)CNC(=O)C1=C(O)C2(CC2)CN(Cc2ccc(Cl)cc2)C1=O [Ex. 1-215] | 85 | 86 | 
CC1(C)CC(O)=C(C(=O)NCC(=O)O)C(=O)N1Cc1cc(-c2ccc(Cl)cc2)on1 [Ex. 1-216] | 75 | 73 | 
CC1(C)CC(O)=C(C(=O)NCC(=O)O)C(=O)N1CC1CC(c2ccccc2)C1 (stereo not shown) [Ex. 1-217] | 52 | 60 | 
CC1(C)CC(O)=C(C(=O)NCC(=O)O)C(=O)N1C[C@H]1C[C@@H](c2ccccc2)C1 [Ex. 1-218] | 52 | 62 | 
O=C(O)CNC(=O)C1=C(O)CCN(C2(c3ccc(-c4ccccc4)cc3)CC2)C1=O [Ex. 1-219] | 69 | 88 | 
O=C(O)CNC(=O)C1=C(O)CCN(C2CCC(Cc3ccccc3)CC2)C1=O (stereo not shown) [Ex. 1-220] | 72 | 82 | 
O=C(O)CNC(=O)C1=C(O)CC2(CC2)N(Cc2ccc(-c3ccccc3)cc2)C1=O [Ex. 1-223] | 90 | 96 | 
O=C(O)CNC(=O)C1=C(O)CC2(CC2)N(Cc2ccc(C(F)(F)F)cc2)C1=O [Ex. 1-224] | 80 | 90 | 
CC(C)Oc1ccc(CN2C(=O)C(C(=O)NCC(=O)O)=C(O)CC2(C)C)cc1 [Ex. 1-228] | 71 | 64 | 
CC1(C)CC(O)=C(C(=O)NCC(=O)O)C(=O)N1C[C@H]1C[C@@H]1c1ccccc1 [Ex. 1-229] | 74 | 60 | 
CC(c1ccc(-c2ccccc2)cc1)N1CCC(O)=C(C(=O)NCC(=O)O)C1=O (stereo not shown) [Ex. 1-230] | 96 | 95 | 
CC(C)(c1ccc(C(F)(F)F)cc1)N1CCC(O)=C(C(=O)NCC(=O)O)C1=O [Ex. 1-231] | 65 | 44 | 
O=C(O)CNC(=O)C1=C(O)CC2(CCC2)N(Cc2ccc(C3CC3)cc2)C1=O [Ex. 1-236] | 84 | 87 | 
O=C(O)CNC(=O)C1=C(O)C2(CCC2)CN(Cc2ccc(C3CC3)cc2)C1=O [Ex. 1-237] | 74 | 84 | 
CC1(C)CC(O)=C(C(=O)NCC(=O)O)C(=O)N1Cc1ccc(OCC2CCC2)cc1 [Ex. 1-239] | 74 | 87 | 
CC1(C)CC(O)=C(C(=O)NCC(=O)O)C(=O)N1C[C@@H]1C[C@@H]1c1ccccc1 [Ex. 1-244] | 47 | 50 | 
O=C(O)CNC(=O)C1=C(O)CCN(Cc2ccc(C(F)(F)F)c(C3CCC3)c2)C1=O [Ex. 1-245] | 80 | 78 | 
O=C(O)CNC(=O)C1=C(O)CC2(CCCCC2)N(Cc2ccccc2)C1=O [Ex. 1-253] | 45 | 49 | 

More lines, now with the values ahead:

inhibition at 1 µM [1] [%] | inhibition at 1 µM [2] [%] | pIC50 [2] | SMILES
95 | 93 |  | Cc1ccc(Oc2ccc(CN3C(=O)C(C(=O)NCC(=O)O)=C(O)CC3(C)C)cn2)cc1 [Ex. 1-206]
90 | 85 |  | O=C(O)CNC(=O)C1=C(O)C2(CC2)CN(Cc2ccc(OC(F)(F)F)cc2)C1=O [Ex. 1-208]
82 | 85 |  | O=C(O)CNC(=O)C1=C(O)CCN(Cc2ccc(C3CC3)c(C(F)(F)F)c2)C1=O [Ex. 1-212]
66 | 73 |  | CC1(C)CC(O)=C(C(=O)NCC(=O)O)C(=O)N1Cc1ccc(OCC(F)(F)F)cc1 [Ex. 1-221]
90 | 89 |  | O=C(O)CNC(=O)C1=C(O)CCN(Cc2ccc(OCC(F)(F)F)c(Cl)c2)C1=O [Ex. 1-222]
100 | 98 | 7.40 | N#Cc1ccc(Oc2ccc(CN3CCC(O)=C(C(=O)NCC(=O)O)C3=O)cn2)cc1 [Ex. 1-225]
76 | 75 |  | CCCOc1ccc(CN2C(=O)C(C(=O)NCC(=O)O)=C(O)CC2(C)C)cc1 [Ex. 1-227]
89 | 91 |  | CC(C)(C)COCc1ccc(CN2CCC(O)=C(C(=O)NCC(=O)O)C2=O)cc1 [Ex. 1-232]
91 | 93 |  | CC1(COCc2ccc(CN3CCC(O)=C(C(=O)NCC(=O)O)C3=O)cc2)CC1 [Ex. 1-233]
61 | 62 |  | CCOc1ccc(CN2C(=O)C(C(=O)NCC(=O)O)=C(O)CC2(C)C)cc1 [Ex. 1-234]
92 | 99 |  | O=C(O)CNC(=O)C1=C(O)CCN(Cc2ccc(OCC3CCC3)cc2)C1=O [Ex. 1-238]
91 | 97 |  | O=C(O)CNC(=O)C1=C(O)CCN(Cc2ccc(OCc3ccccc3)cc2)C1=O [Ex. 1-240]
97 | 101 |  | O=C(O)CNC(=O)C1=C(O)CCN(Cc2ccc(OCc3ccc(F)cc3)cc2)C1=O [Ex. 1-241]
100 | 101 |  | O=C(O)CNC(=O)C1=C(O)CCN(Cc2ccc(OCc3ccc(Cl)cc3)cc2)C1=O [Ex. 1-242]
76 | 92 |  | O=C(O)CNC(=O)C1=C(O)CCN(Cc2ccc(C3CCC3)c(C(F)(F)F)c2)C1=O [Ex. 1-243]
81 | 82 |  | CC1(C)CC(O)=C(C(=O)NCC(=O)O)C(=O)N1Cc1ccc(OCCC2CC2)cc1 [Ex. 1-247]
103 | 94 |  | O=C(O)CNC(=O)C1=C(O)CCN(Cc2ccc(CCC3CC3)cc2)C1=O [Ex. 1-249]
80 | 81 |  | O=C(O)CNC(=O)C1=C(O)C2(CCC2)CN(Cc2ccc(OCC3CC3)cc2)C1=O [Ex. 1-250]
90 | 83 |  | O=C(O)CNC(=O)C1=C(O)CC2(CC2)N(Cc2ccc(OCC3CC3)cc2)C1=O [Ex. 1-251]
104 | 98 | 7.06 | O=C(O)CNC(=O)C1=C(O)CCN(Cc2ccc(Oc3ccc(F)cc3)nc2)C1=O [Ex. 1-252]
103 | 96 | 7.62 | O=C(O)CNC(=O)C1=C(O)CCN(Cc2ccc(Oc3ccc(C(F)(F)F)cc3)nc2)C1=O [Ex. 1-254]
99 | 90 | 7.18 | Cc1cccc(Oc2ccc(CN3CCC(O)=C(C(=O)NCC(=O)O)C3=O)cn2)c1 [Ex. 1-255]
